The target of data set [1] is T1, Recombinant human Vitamin D3 receptor (VDR) (Homo sapiens, UniProt P11473).
T1 construct: purchased Pan Vera Corp
T1 sequence (P11473 1-427): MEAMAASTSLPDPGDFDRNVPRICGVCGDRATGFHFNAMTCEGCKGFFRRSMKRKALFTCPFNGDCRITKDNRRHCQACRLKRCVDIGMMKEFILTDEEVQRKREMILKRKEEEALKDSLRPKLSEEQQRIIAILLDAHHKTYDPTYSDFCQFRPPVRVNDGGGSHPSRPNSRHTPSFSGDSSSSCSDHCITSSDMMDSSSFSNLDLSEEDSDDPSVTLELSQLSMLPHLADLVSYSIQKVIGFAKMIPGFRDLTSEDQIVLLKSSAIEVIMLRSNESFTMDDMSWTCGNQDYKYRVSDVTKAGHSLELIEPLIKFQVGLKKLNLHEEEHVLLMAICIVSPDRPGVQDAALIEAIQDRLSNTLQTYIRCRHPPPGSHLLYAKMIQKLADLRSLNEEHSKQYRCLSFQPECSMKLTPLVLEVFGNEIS
Description: Inhibition of binding of immobilized ED-533 to VDR (SPR, BIACORE 3000). As to conditions: VDR 100 nM; for inhibitory activity compared with 1,25(OH)2 vitamin D3 (in words): compound 0, 10, 100 or 1000 nM, FIG. 7; for IC50: test compound 0-1000 nM, 1 hr room temperature, 5% DMSO. The procedure:
HBS-EP containing 5% DMSO was used as a running buffer, and the flow rate was set at 5 μl/min. Carboxyl groups of carboxymethyl dextran on the Sensor Chip CM5 were activated by injecting 100 μl of 0.05 M N-hydroxysuccinimide (NHS)/0.2 M N-ethyl-N′-(3-dimethyl aminopropyl)carbodiimide (EDC). […] Aliquots (10 to 40 μl) were injected onto the chip and immobilized by the amine coupling method. Excessive activated groups were blocked by injecting 100 μl of ethanolamine, pH 8.5. Non-covalently bound substances were washed out by injecting 10 μl each of 50% aqueous DMSO solution and 50% PrOH/10% DMSO/50 mM HCl.
The structural formulae of OCT and ED-71 are represented by formulae (2) and (3), respectively. [drawing 2]

Data set [2] in a line: BIACORE (SPR) binding activity assay of MBP-ERLBD and ERLBD to immobilized 7α-(9-aminononyl)estradiol. As to conditions: analyte 20 μg/ml, 10 μl injection; single values of duplicate (n = 2). The procedure: Immobilization of 7α-(9-aminononyl)estradiol on the Sensor Chip CM5 (Pharmacia) was carried out as follows. HBS was used as a continuous flow buffer, and the flow rate was set at 5 μl/min. Carboxyl groups of carboxymethyl dextran on the Sensor Chip CM5 were activated by injecting 100 μl of 0.05 M N-hydroxysuccinimide (NHS)/0.2 M N-ethyl-N′-(3-dimethyl aminopropyl)-carbodiimide (EDC). 7α-(9-aminononyl)estradiol (approx. 7 mg/ml in benzene, approx. 4.5 mg/ml in 2-PrOH) was first diluted 10-fold in EtOH, further diluted 10-fold using 10 mM Na-acetate buffer, pH 4.0 or pH 4.5. Aliquots (10 to 50 μl) were injected onto the chip and immobilized by the amine coupling method. Then, excessive activated groups were blocked by injecting 100 μl of ethanolamine, pH 8.5. Further, non-covalently bound substances were washed out by 10 μl of 0.1 M Gly-HCl buffer, pH 2.5 and 10 mM HCl.
The reaction principle was illustrated in FIG. 2. MBP-ERLBD (20 μg/ml, 10 μl) or ERLBD (20 μg/ml, 10 μl) which were prepared by the above-described method were injected onto the chip to assay their binding activities to the immobilized 7α-(9-aminononyl)estradiol. Regeneration and washing of sensor chips were performed by injecting 10 μl of 7% propanol/50 mM HCl.
For the purpose of measuring the reproducibility and lot-to-lot variations of the binding activity assay, the binding activity assay was performed using different lots of MBP-ERLBD and ERLBD preparations to compare assay values in duplicate. The binding levels of MBP-ERLBD (Lot #90) (20 μg/ml, 10 μl) were 2124.9 and 2048.9 RU, indicating a high reproducibility (% CV=2.6%) (Table 1). Highly reproducible data were also obtained for ERLBD (Lots. #110, #111, #112, and #113) (20 μg/ml, 10 μl each), as shown in Table 1. […] The results also indicate that binding activities can be accurately compared lot-to-lot variations, and that this method may be applied to the product quality control, etc. This method has also enabled easily monitoring active fractions in the purification process of ERLBD, leading to shortening of its preparation time. Results of examination of the reproducibility of the binding activity assay and the comparison thereof among sample lots are summarized in Table 1.
Using MBP-ERLBD (Lot #90) and ERLBD (Lots. #110, #111, #112, and #113) as the binding molecule, the binding activity was assayed in duplicate. RU is the unit of surface plasmon resonance intensity. % CV represents the dispersion in duplicate, indicating the larger the value, the greater the dispersion.

Data set [3] in a line: Conventional RI method binding activity assay using labeled oestradiol. As to conditions: 100% = [6,7-3H]oestradiol bound to all the ERLBD added, single replicate values. An excerpt:
FIG. 5 schematically illustrates a conventional binding assay using a ligand labeled with radioisotope (RI). ^3H-ligand stands for [6,7-^3H]estradiol, MBP-LBD for MBP-ERLBD, and LBD for ERLBD After the ligand and the binding molecule are mixed and allowed to stand at room temperature for 6 hr, the resulting mixture is subjected to the Bound/Free separation procedure. The amount of [6,7-^3H]estradiol bound to MBP-ERLBD or ERLBD is detected with a scintilator.
The binding activity of [6,7-^3H]oestradiol (Amersham Pharmacia Biotech) to a full-length human estrogen receptor-α, ERLBD, and MBP-ERLBD was assayed according to a conventional method using a ligand labeled with radioisotope (RI) (Sasson, S. and Notides, A. C. (1988) Mol. Endcrinol., Vol. 2, No. 4, p307-312). The reaction is schematically illustrated in FIG. 5. The RI value obtained when [6,7-^3H]oestradiol bound to all the ERLBD added to the assay system was taken as 100%, and the relative binding activity was calculated. A full-length human estrogen receptor-α and MBP-ERLBD (lot #87 and #90) were used as the binding molecule. […] The method of the present invention uses proteins as the binding molecule, and the reaction time is thus short, so that the binding activity can be measured with a good reproducibility without causing a decrease in the binding activity.

Values joined by “and” are separate entries in the source; they are usually repeats but may differ in a detail not shown here. Identical values can stand only once.

In the case of `C=C1/C(=C\C=C2/CCC[C@]3(C)[C@@H]([C@H](C)CCCC(C)(C)O)CC[C@@H]23)C[C@@H](O)[C@@H](OCCCO)[C@@H]1O` [ED-71, 2β-(3-Hydroxypropoxy)-1α,25-dihydroxyvitamin D3], in data set [1], the “inhibitory activity compared with 1,25(OH)2 vitamin D3 (in words)” value was “almost the same inhibitory activities” and the IC50 is 500 nM. The like results for `C=C1/C(=C\C=C2/CCC[C@@]3(C)C2CC[C@@H]3[C@H](C)CCCC(C)(O)CCCCCCCCCCN)C[C@@H](O)C[C@@H]1O` (stereo partly drawn) [ED-533, (1α,3β,5Z,7E)-25-(10-aminodecanyl)-27-nor-9,10-secocholesta-5,7,10(19)-triene-1,3,25-triol] were, in that order, “almost the same inhibitory activities” and 520 nM. The like results for `C=C1/C(=C\C=C2/CCC[C@]3(C)[C@@H]([C@H](C)OCCC(C)(C)O)CC[C@@H]23)C[C@@H](O)C[C@@H]1O` [OCT, 1α,25-dihydroxy-22-oxavitamin D3] were, in that order, “almost the same inhibitory activities” and 110 nM.

B1: ERLBD: partial sequence containing the ligand binding domain of human estrogen receptor-α (Ala288-Arg555) (protein, UniProt P03372 288-555, looked up, fragment)
chain: AANLWPSPLMIKRSKKNSLALSLTADQMVSALLDAEPPILYSEYDPTRPFSEASMMGLLTNLADRELVHMINWAKRVPGFVDLTLHDQVHLLECAWLEILMIGLVWRSMEHPGKLLFAPNLLLDRNQGKCVEGMVEIFDMLLATSSRFRMMNLQGEEFVCLKSIILLNSGVYTFLSSTLKSLEEKDHIHRVLDKITDTLIHLMAKAGLTLQQQHQRLAQLLLILSHIRHMSNKGMEHLYSMKCKNVVPLYDLLLEMLDAHRLHAPTSR
Regarding B1, the “Response [RU], binding level to immobilized 7α-(9-aminononyl)estradiol” value (shortened to “Response [RU], binding level”) in data set [2] is “about 2000 RU”. In addition, the “Relative activity (%), binding of [6,7-3H]oestradiol” value in data set [3] is listed as “about 10%”.

B2: ERLBD #113: lot of purified ERLBD (protein, UniProt P03372 288-555, looked up, fragment)
chain: AANLWPSPLMIKRSKKNSLALSLTADQMVSALLDAEPPILYSEYDPTRPFSEASMMGLLTNLADRELVHMINWAKRVPGFVDLTLHDQVHLLECAWLEILMIGLVWRSMEHPGKLLFAPNLLLDRNQGKCVEGMVEIFDMLLATSSRFRMMNLQGEEFVCLKSIILLNSGVYTFLSSTLKSLEEKDHIHRVLDKITDTLIHLMAKAGLTLQQQHQRLAQLLLILSHIRHMSNKGMEHLYSMKCKNVVPLYDLLLEMLDAHRLHAPTSR
Consider B2, for which the “Response [RU], binding level” value in data set [2] is 1613.7 RU and 1597.3 RU.

B3: ERLBD #110: lot of purified ERLBD (protein, UniProt P03372 288-555, looked up, fragment)
chain: AANLWPSPLMIKRSKKNSLALSLTADQMVSALLDAEPPILYSEYDPTRPFSEASMMGLLTNLADRELVHMINWAKRVPGFVDLTLHDQVHLLECAWLEILMIGLVWRSMEHPGKLLFAPNLLLDRNQGKCVEGMVEIFDMLLATSSRFRMMNLQGEEFVCLKSIILLNSGVYTFLSSTLKSLEEKDHIHRVLDKITDTLIHLMAKAGLTLQQQHQRLAQLLLILSHIRHMSNKGMEHLYSMKCKNVVPLYDLLLEMLDAHRLHAPTSR
For the molecule B3, the “Response [RU], binding level” value in data set [2] is 1825.8 RU and 1815.0 RU.

B4: ERLBD #111: lot of purified ERLBD (protein, UniProt P03372 288-555, looked up, fragment)
chain: AANLWPSPLMIKRSKKNSLALSLTADQMVSALLDAEPPILYSEYDPTRPFSEASMMGLLTNLADRELVHMINWAKRVPGFVDLTLHDQVHLLECAWLEILMIGLVWRSMEHPGKLLFAPNLLLDRNQGKCVEGMVEIFDMLLATSSRFRMMNLQGEEFVCLKSIILLNSGVYTFLSSTLKSLEEKDHIHRVLDKITDTLIHLMAKAGLTLQQQHQRLAQLLLILSHIRHMSNKGMEHLYSMKCKNVVPLYDLLLEMLDAHRLHAPTSR
B4: in data set [2], the “Response [RU], binding level” value was 1032.0 RU and 990.3 RU.

B5: ERLBD #112: lot of purified ERLBD (protein, UniProt P03372 288-555, looked up, fragment)
chain: AANLWPSPLMIKRSKKNSLALSLTADQMVSALLDAEPPILYSEYDPTRPFSEASMMGLLTNLADRELVHMINWAKRVPGFVDLTLHDQVHLLECAWLEILMIGLVWRSMEHPGKLLFAPNLLLDRNQGKCVEGMVEIFDMLLATSSRFRMMNLQGEEFVCLKSIILLNSGVYTFLSSTLKSLEEKDHIHRVLDKITDTLIHLMAKAGLTLQQQHQRLAQLLLILSHIRHMSNKGMEHLYSMKCKNVVPLYDLLLEMLDAHRLHAPTSR
For the molecule B5, the “Response [RU], binding level” value in data set [2] was 1255.7 RU and 1203.9 RU.

Source of the values: patent US20050084908A1, “Methods for detecting binding of low-molecular-weight compound and its binding partner molecule” (CHUGAI SEIYAKU KABUSHIKI KAISHA, priority 2000, published 2005).
